Measured values taken from ChEMBL document CHEMBL3784992, “Identification of novel estrogen receptor (ER) agonists that have additional and complementary anti-cancer activities via ER-independent mechanism” (Bioorg Med Chem Lett, 2016).
The source made the active and inactive calls. No cut-off for these calls is given here.

How the values were obtained:
MCF7 [1] = test: Effect on cell cycle in ER-positive human MCF7 cells assessed as accumulation at subG1 phase at 10 uM after 48 hrs by propidium iodide staining based flow cytometry; assay type: functional
MDA-MB-231 = test: Antiproliferative activity against ER-negative human MDA-MB-231 cells assessed as cell viability after 48 hrs by MTT assay; assay type: functional, cell-based
[2] = target: T1, Estrogen receptor (Homo sapiens) (UniProt P03372); test: Agonist activity at estrogen receptor alpha in human MCF7 cells assessed as ER alpha phosphorylation at 10 uM after 24 hrs by immunoblotting analysis; assay type: cell-based
T1 sequence (whole entry): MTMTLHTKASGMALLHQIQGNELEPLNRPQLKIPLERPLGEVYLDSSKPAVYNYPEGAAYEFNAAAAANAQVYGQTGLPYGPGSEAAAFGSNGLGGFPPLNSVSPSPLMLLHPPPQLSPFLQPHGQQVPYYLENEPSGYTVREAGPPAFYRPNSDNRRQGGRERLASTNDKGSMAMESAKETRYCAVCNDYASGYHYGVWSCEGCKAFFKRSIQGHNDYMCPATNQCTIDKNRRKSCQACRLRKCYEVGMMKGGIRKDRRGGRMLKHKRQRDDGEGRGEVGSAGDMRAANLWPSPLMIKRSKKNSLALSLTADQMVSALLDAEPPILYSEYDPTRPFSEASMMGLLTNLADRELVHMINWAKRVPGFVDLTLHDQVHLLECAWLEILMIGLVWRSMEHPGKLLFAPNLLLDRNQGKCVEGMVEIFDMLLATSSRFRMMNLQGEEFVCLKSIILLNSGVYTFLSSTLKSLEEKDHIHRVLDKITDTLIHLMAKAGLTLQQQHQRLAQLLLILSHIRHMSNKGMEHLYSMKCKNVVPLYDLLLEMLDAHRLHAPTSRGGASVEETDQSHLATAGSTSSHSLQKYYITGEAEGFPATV

MCF7 [3] = test: Induction of apoptosis in ER-positive human MCF7 cells assessed as condensed nuclei at 10 uM after 24 hrs by DAPI staining based fluorescence microscopy; assay type: functional, cell-based
MCF7 [4] = test: Induction of apoptosis in ER-positive human MCF7 cells assessed as cell death at 10 uM after 48 hrs by annexin-V staining based flow cytometry; assay type: functional
Estrogen receptor = target: T2, Estrogen receptor (Homo sapiens, UniProt P03372); test: Agonist activity at estrogen receptor in human MCF7 cells assessed as ERE-mediated transcriptional activity after 24 hrs by luciferase assay; assay type: cell-based
T2 sequence (P03372 whole entry): T1 sequence (whole entry)

[5] = target: T1, Estrogen receptor (Homo sapiens); test: Agonist activity at estrogen receptor in human MCF7 cells assessed as GREB1 mRNA level at 10 uM after 24 hrs by RT-qPCR method; assay type: cell-based
MCF7 [6] = test: Antiproliferative activity against ER-positive human MCF7 cells assessed as cell viability at 10 uM after 48 hrs by MTT assay; assay type: functional, cell-based
MCF7 [7] = test: Induction of apoptosis in ER-positive human MCF7 cells assessed as membrane blebbing at 10 uM after 24 hrs by DAPI staining based fluorescence microscopy; assay type: functional, cell-based
MCF7 [8] = test: Antiproliferative activity against ER-positive human MCF7 cells assessed as cell viability after 48 hrs by MTT assay; assay type: functional, cell-based

Row | Activity [2] | EC50 (Estrogen receptor) [µM] | Activity [5] | SMILES | Activity (MCF7 [1]) | Activity (MDA-MB-231) | Activity (MCF7 [3]) | Activity (MCF7 [4]) | Activity (MCF7 [6]) | Activity (MCF7 [7]) | Activity (MCF7 [8])
1 | Active | 0.077 | Active | CC(C)CCON=C(c1ccc(O)cc1)c1ccc(O)cc1 | Active | Dose-dependent effect | Active | Active | Active | Active | Dose-dependent effect
2 | Active | 0.046 | Active | C=CCCCON=C(c1ccc(O)cc1)c1ccc(O)cc1 | Active | Dose-dependent effect | Active | Active | Active | Active | Dose-dependent effect
3 | Active | 0.075 | Active | CCCCON=C(c1ccc(O)cc1)c1ccc(O)cc1 | Active | Dose-dependent effect | Active | Active | Active | Active | Dose-dependent effect
